Measurements from patent US9408891B2, “Methods of using gelsolin to treat or prevent bacterial sepsis” (priority 2003, dated 2016).
Entries after “also recorded” stand apart in the source; their conditions may differ. Ends that are not written are not given here. * marks the point of attachment. RhodamineB = CCN(CC)c1ccc2c(-c3ccccc3C(=O)*)c3ccc(=[N+](CC)CC)cc-3oc2c1

What was measured:
[1] = system: NF-κB translocation in rat primary astrocytes; assay: NF-κB translocation to the nucleus in astrocytes; type: cell-based; conditions: astrocytes, 2 hour; LPS 2 μM or TNF-α 10 ng/ml
Protocol: Rat primary astrocytes were obtained from prenatal rats and maintained for 14 days in culture before use. Embryos (E17-E19) were removed by caesarian section from a Sprague-Dawley rat and the hippocampi were surgically removed. The tissue was digested in trypsin/DNAse at 37° C., centrifuged (1000×5 min) and filtered to derive suspensions from each pup. Cells were grown in an incubator at 37° C. and 5% CO2 in DMEM (Dulbecco's Modified Eagle's Medium; BioWhittaker/Cambrex BioScience, East Rutherford, N.J.), supplemented with Ham's F12 (Sigma-Aldrich, St. Louis, Mo.) and 5% fetal bovine serum (FBS) (Hyclone, Logan, Utah) for 7 days, followed by an additional 7 days in Neurobasal medium (Gibco, Grand Island, N.Y.) also supplemented with 5% FBS, 2 mM l-glutamine, 50 μg/ml streptomycin and 50 U/ml penicillin. In each experiment, the medium was changed to serum-free at 6-12 hours prior to addition of LPS, TNF-α, or gelsolin.
HAECs and astrocytes cultures were incubated for 10 minutes in medium containing 10 μg/ml LPS alone, or LPS that had been pre-incubated with 0.16 mg/ml of human gelsolin. Cultures were fixed with ice-cold methanol and immunostained for F-actin with fluorescein isothiocyanate (FITC)-labeled phalloidin (Molecular Probes, Eugene, Oreg.). In astrocyte cultures, NF-κB translocation was manipulated by a 2 hour incubation in serum-free medium containing one of the following: 10 ng/ml TNF-α, 10 μg/ml LPS alone, or LPS that had been preincubated with 0.16 mg/ml human gelsolin. Location of transcription factor nuclear factor-kappaB (NF-κB) was observed using a monoclonal antibody to NF-κB (Molecular Probes), and cell nuclei were detected by counter-staining with 4′, 6-diamidino-2-phenylindole dihydrochloride (DAPI) (Sigma).

[2] = system: human platelets; assay: Collagen-induced aggregation of gel-filtered platelets; type: cell-based
Protocol: To isolate human platelets, blood from healthy volunteers was collected in acid-citrate dextrose. Platelet-rich plasma obtained after centrifugation (15 minutes, 110×g) at room temperature, was supplemented with apyrase (0.5 U/ml) (Sigma-Aldrich) to degrade excess nucleotides. Platelets were sedimented by centrifugation (10 minutes, 1000×g), suspended in buffer A (139 mM NaCl, 2.8 mM KCl, 0.8 mM MgCl2, 0.8 mM KH2PO4, 8.9 mM NaHCO3, 10 mM HEPES, 5.6 mM glucose, 0.3% albumin, pH 7.35) and filtered on a 50 ml column of Sepharose 2B to obtain gel-filtered platelets (GFP).
Platelet aggregation was initiated by adding collagen (10 μg/ml) (Chrono-Log Corp., Havertown, Pa.). Platelet aggregation was monitored using a Chronolog Lumi-Aggregometer (Chrono-Log Corp.). Changes in light transmission were recorded for 10 minutes, using a PowerLab/200 instrument and MacLab Chart program Version 3.2. When required before activation, the platelet suspension was reacted with LPS, or LPS-preincubated with the SEQ ID No:1 peptide (QRLFQVKGRR).

[3] = Neutron scattering of LPS with gelsolin peptide; type: physicochemical; conditions: preliminary neutron scattering
Text: The molecular structure of LPS and its complexes with proteins can be measured at nm resolution by X-ray and neutron scattering, as well as by electron and atomic force microscopy.
At present, the calculated diameter (36 nm) is greater than that which has been previously reported for pure LPS micelles, and the difference in size may reflect another structural feature. In additional experiments with more variations in gelsolin/LPS or peptide, LPS ratios will reveal if there are significant changes in LPS particle structure when these peptides bind LPS.

[4] = system: human neutrophils / human aortic endothelial cells (HAEC); assay: Neutrophil adhesion to LTA-stimulated HAEC; type: cell-based; conditions: LTA 10 μg/ml
Text: To investigate whether gelsolin can prevent gram-positive bacterial inflammation, the effect of LTA-mediated activation of human neutrophils was examined. Neutrophils were selected because their adhesion to human aorta endothelial cells (HAEC) is a hallmark of inflammation.
Neutrophils were isolated from human blood using the endotoxin-free Lympholyte-poly kit (Cedarlane, Ontario, Canada). The isolated neutrophil cells were resuspended in RPMI media. […] To quantify the adhesion, the neutrophils were labeled with calcein-AM (5 μM for 30 minutes at 37° C.).

[5] = molecular target: gelsolin (Homo sapiens, UniProt P06396); assay: Actin severing activity of gelsolin (50 nM) with LTA or lysolipids; type: biochemical; conditions: for inhibition of gelsolin by lysolipids: lipid below 1 μM
Protocol: (§1) The tested gelsolin concentration was 50 nM; LTA ranged from 0-50 μM; Pyrene-F-actin was 0.3 μM. Recording changes in fluorescently-labeled (rhodamine B-labeled) gelsolin peptide PBP10 (10 μM), indicates a specific interaction between gelsolin and LTA.

[6] = molecular target: T1, PBP10 (PIP2-binding site of gelsolin) (Homo sapiens, UniProt P06396); assay: Rhodamine-B fluorescence change of gelsolin peptide PBP10 after adding lipids; conditions: for fluorescence quenching / change of rhodamine-B peptide: 2 μM peptide, buffer A pH 7.0, 15 min
T1 construct: made in house; host or cells: solid phase peptide synthesis
Protocol: (§2) Therefore, to determine changes of gelsolin OD at 280 nm, different amounts of LPS, LPA and PS were added to recombinant human gelsolin (rhGLS) solutions and OD emission spectra were recorded using spectrophotometer Genesys 6 (Thermo-Spectronic, USA).
Interaction of LPS and gelsolin was examined using rhodamine B- and pyrene-labeled SEQ ID No:1 (QRLFQVKGRR). The effect of LPS on gelsolin was determined in terms of the rhodamine-B fluorescent changes of PBP10 peptide in the presence of different lipids (FIG. 1C); and the fluorescence emission spectra of pyrene-labeled SEQ ID No:1 (2 μM) in the presence of LPS from Escherichia coli (1.2 μM), PIP2 (0.82 μM) and LPA (0.82 μM) (FIG. 1D) The results using the pyrene-derivatized gelsolin peptide confirmed the LPS induced clustering of the peptide with resulting excimer fluorescence of the pyrene group, which was evident as a large increase in fluorescence emission at 480 nm.
as §1

[7] = molecular target: T2, recombinant human gelsolin (rhGLS) (Homo sapiens, UniProt P06396); assay: Actin filament severing activity of purified gelsolin (pyrene F-actin depolymerization); type: biochemical; conditions: molar basis comparison
T2 construct: purchased Biogen IDEC, Inc., Cambridge, Mass; host or cells: E. coli
Protocol: To determine gelsolin's severing activity, rates of fluorescence decrease were evaluated during depolymerization. Monomeric G-actin was prepared from an acetone powder of rabbit skeletal muscle according to previously published methods (Spudich et al., J. Biol. Chem […]). The non-polymerizing solution contained 2 mM TRIS, 0.2 mM CaCl2, 0.5 mM ATP (adenosine triphosphate), 0.2 mM DTT (dithiothreitol) pH 7.4. Actin was polymerized by adding 150 mM KCl and 2 mM MgCl2 to the G-actin solutions and incubating for 1 hour at room temperature.
For F-actin severing assays, in general, a small volume (typically 5 μl) of the gelsolin composition is added to a similar volume of pyrene-labeled F-actin at a concentration adjusted to provide an actin:gelsolin ratio of approximately 10:1 (typically 1 μM gelsolin and 10 μM actin). This mixture is the diluted to 0.5 μM in a larger volume of F-actin buffer, and the filament severing efficiency is calculated from the initial slope of the fluorescence change. This reflects the rate of depolymerization that, in turn, is proportional to the number of cuts made by gelsolin. The LPS/gelsolin reaction can be done under any ionic condition, and the addition to F-actin requires the presence of […] Ca^2+ to activate the gelsolin. […] The actin nucleation reaction is similar except that in the latter case, the gelsolin/LPS mixture is added to a more dilute solution of G-actin (typically, 1 or 2 μM) in low ionic strength buffer followed immediately by addition of 150 mM KCI and 2 mM MgCl2 to initiate polymerization.
(§3) As shown, recombinant human gelsolin (rhGLS) (FIG. 4A) and blood serum (FIG. 4B) severing activity was measured in 0.4 μM pyrene-labeled F-actin samples (polymerized with 50% pyrene-labeled G-actin), after adding gelsolin (16 nM)/serum (2.5 μl), or their combination with one of the following: LPS (from different species), PIP2 (phosphatidyl-inositol-4,5-bisphosphate), LPA (lysophosphatidic acid), lipid A (the LPS derivative lacking polysaccharide) or PS (phosphatidylserine). The fluorescence intensity of F-pyrene actin was then monitored for 10 minutes, and the severing activity was calculated based on decreasing fluorescence. Severing activity was determined from a decrease in rate of fluorescence during depolymerization, and the depolymerization rate was calculated from the slope of the early decrease in fluorescence.

[8] = molecular target: T2, recombinant human gelsolin (rhGLS); assay: Change of gelsolin OD at 280 nm after adding lipids; type: binding; conditions: OD 280 nm
Protocol: as §2

[9] = molecular target: T3, gelsolin activity in whole human serum (Homo sapiens, UniProt P06396); assay: Actin filament severing activity of whole human serum; type: biochemical; conditions: larger amounts needed than with pure gelsolin
T3 construct: from tissue; host or cells: whole human serum (2.5 µl)
Protocol: as §3

[10] = Solid phase binding of 3H-LPS to peptide-coated wells; parameters: species or system Salmonella minnesota; conditions: for binding of 3H-LPS to peptide-coated surfaces: solid phase, wells coated with peptide
Protocol: To provide chemical and functional evidence that gelsolin binds LPS through its lipid-binding domain, a solid phase assay was conducted in which radiolabeled LPS was added to wells coated with different amounts of rhodamine-B-labeled-SEQ ID No:1 (rhodamine-B-QRLFQVKGRR, derived from the PIP2-binding site of gelsolin and termed “PBP10”), or to a truncated peptide (rhodamine-B-QRL), in the absence or presence of unlabeled LPS, respectively.
Tritium-labeling of LPS was done by a modification of the procedure of Watson and Riblet (Watson et al., J. Immunol 114:1462-8 (1975)). A sample (2 mg) of LPS from Salmonella minnesota Re595 (Sigma Chemical Co., St. Louis, Mo.) was oxidized (150 minutes, 20° C.) with sodium periodate (3×10^−2 M). After destruction of the oxidant with 1.0 M ethylene glycol, aldehyde groups were reduced (18 hours at 4° C.) with an ice-cold solution of NaB [^3H]4 (0.46 GBq, 481 GBq/mmole, wherein GBq refers to a unit of radioactivity) (Amersham-Pharmacia Biotech, Buckinghamshire, England) in 200 μl of ice-cold borate buffer (0.05 M, pH 9.5). Excess sodium borohydride was destroyed with 5 μl of acetic acid. After two washings (centrifugation at 100,000×g for 15 minutes) in 400 μl of an ice-cold water-ethanol mixture (1:1 by vol.), the radiolabeled [^3H]-LPS (9×10^5 cpm/μg; 2×10^3 cpm/pmole) was stored at −20° C. until used.
To measure [^3H] labeled-LPS-binding, polystyrene ELISA-type microplates (96 wells) were coated with PBP10 or rhodamine-B-QRL (RhB-QRL) by incubation for 18 hours at 4° C. with a solution (100 μl, 500 pmole/well) in saline. After three washings with 100 μl saline, the wells were then incubated at room temperature with [^3H]-LPS (360,000 c.p.m.), in the presence or absence of unlabeled LPS (20 μg/well), in a binding medium (100 μl) containing bovine serum albumin (50 μg) in saline. After 3 hours of incubation, the plates were washed three times with 100 μl saline washes, and the remaining bound radioactivity was measured.

Chain of gelsolin (P06396 28-782): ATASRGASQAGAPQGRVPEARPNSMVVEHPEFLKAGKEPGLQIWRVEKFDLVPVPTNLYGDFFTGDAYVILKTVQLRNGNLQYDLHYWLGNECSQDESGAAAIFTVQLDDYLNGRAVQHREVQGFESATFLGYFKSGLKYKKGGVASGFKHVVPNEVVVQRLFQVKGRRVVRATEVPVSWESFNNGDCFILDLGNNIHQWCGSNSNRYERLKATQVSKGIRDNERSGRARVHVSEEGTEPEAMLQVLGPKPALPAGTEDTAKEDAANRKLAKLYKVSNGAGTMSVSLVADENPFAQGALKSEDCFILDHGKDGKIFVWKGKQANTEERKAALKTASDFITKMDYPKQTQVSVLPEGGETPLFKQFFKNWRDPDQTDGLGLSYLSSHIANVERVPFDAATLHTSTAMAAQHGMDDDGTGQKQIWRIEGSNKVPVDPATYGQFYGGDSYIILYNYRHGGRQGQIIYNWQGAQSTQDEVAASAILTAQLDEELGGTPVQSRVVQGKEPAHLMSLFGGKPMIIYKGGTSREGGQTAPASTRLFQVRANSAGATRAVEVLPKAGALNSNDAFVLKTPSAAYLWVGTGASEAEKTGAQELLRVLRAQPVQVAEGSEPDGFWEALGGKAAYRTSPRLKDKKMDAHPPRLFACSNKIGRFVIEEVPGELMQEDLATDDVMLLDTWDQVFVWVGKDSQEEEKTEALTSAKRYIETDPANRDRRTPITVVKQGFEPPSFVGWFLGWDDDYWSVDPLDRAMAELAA
T3 sequence (P06396 28-782): as above
T2 sequence (P06396 28-782): as above

TNF-α
induction of NF-κB translocation to the nucleus [1]: caused NF-κB translocation to the nucleoplasm

QRLFQVKGRR (peptide fragment of gelsolin) [gelsolin SEQ ID No:1, Gelsolin residues 160-169 peptide]
reversal of LPS inhibition of collagen-induced platelet activation ([2]; peptide added to LPS before addition to platelets, collagen 10 μg/ml): restored, in a peptide concentration-dependent manner
effect of peptide alone on collagen-mediated platelet functions ([2]; without LPS): had no effect on collagen-mediated platelet functions
effect of peptide on calculated diameter of LPS [3]: small, but significant increase in calculated diameter of LPS

lipoteichoic acid [LTA]
stimulation of neutrophil binding to the endothelial surface [4]: stimulated binding of calcein AM-labeled neutrophils
inhibition of gelsolin's actin severing activity ([5]; LTA 0-50 μM, pyrene-F-actin 0.3 μM): nearly as well as LPS does; also recorded: potent inhibitor
binding to PBP10 judged by changes in PBP10 fluorescence ([6]; PBP10 10 μM): approximately the same avidity as PIP2; also recorded: approximately the same efficiency as PIP2; also recorded: binds to the PIP2-binding site within the PBP10 peptide

platelet activating factor [PAF]
inhibition of gelsolin by lysolipids [5]: do not inhibit gelsolin

CCCCCCCCCCCCC/C=C/[C@@H](O)[C@@H](N)COP(=O)(O)OCC[N+](C)(C)C [SPC, Sphingosylphosphocholine]
inhibition of gelsolin by lysolipids [5]: at least as strongly as lysophosphatidic acid (LPA); also recorded: also inhibit gelsolin

Lipid A
inhibitory effect on severing activity of purified gelsolin [7]: weaker but still significant inhibitory effect; also recorded: weaker, but detectable inhibition; also recorded: weaker, but still significant inhibitory effect

lysophosphatidic acid [LPA]
effect on absorbance of gelsolin [8]: diminished the absorbance of gelsolin
inhibition of gelsolin activity in whole human serum [9]: much less effective in serum than in pure solution; also recorded: appeared to lack its effect in serum
inhibitory effect on severing activity of purified gelsolin [7]: strongly inhibited

phosphatidylinositol-4,5-bisphosphate [PIP2]
inhibition of gelsolin activity in whole human serum [9]: able to inhibit gelsolin activity
fluorescence quenching / change of rhodamine-B peptide [6]: induced identical concentration-dependent fluorescence quenching

rhodamine-B-QRLFQVKGRR (RhodamineB-QRLFQVKGRR) [PBP10]
reduction of 3H-LPS binding by excess unlabeled LPS ([10]; 5-fold excess of unlabeled LPS): approximately 50%
binding of 3H-LPS to peptide-coated surfaces [10]: saturably bound; also recorded: bound in a saturable manner
inhibition of labeled LPS binding in the presence of excess LPS ([10]; unlabeled LPS 20 μg/well): substantial inhibition

rhodamine-B-QRL
binding of 3H-LPS to peptide-coated surfaces [10]: did not bind LPS
fluorescence quenching / change of rhodamine-B peptide [6]: no fluorescence change
